Consider 3 compounds from patent US20210403975A1, “PHENOTYPIC ANTIMICROBIAL SUSCEPTIBILITY PROFILING OF UNIDENTIFIED PATHOGENS DIRECTLY FROM PATIENT SAMPLES” (GeneFluidics, Inc., priority 2020, published 2021).

A word on the MIC: it is the least concentration at which growth counts as inhibited.

Like-named read-outs stand apart in the source and are kept apart here.

Test [1] relates to P. aeruginosa ATCC 27853. Nature of the test: MIC of the strain used in the gentamicin/meropenem checkerboard. As to conditions: P. aeruginosa ATCC 27853, FIG. 6A legend. Type of test: cell-based. Here is the method: FIG. 6A-C presents a (A) P. aeruginosa ATCC 27853 5×5 checkerboard with gentamicin (MIC: 1 μg/mL) and meropenem (MIC: 0.5 μg/mL). Assay results after 3.5 hours of incubation at 37° C. (B) A 3×3 checkerboard of gentamicin and meropenem on the same P. aeruginosa strain. (C) An exemplary embodiment of a 96-well checkerboard plate for 66 combinations. ABX are gray-scaled with different intensities to represent different concentrations.
The disclosure provides for the establishment and validation of an automated protocol to assess combinations of two or more antimicrobials to assess antimicrobial susceptibility directly from pediatric patients' specimens during an emergency or unprecedented pandemic. The direct-from-specimen AST protocols discussed above are expanded into a 96-well plate-based checkerboard test to assess 66 preselected combinations of 25 antibiotics as illustrated in FIG. 6C.

In test [2] the test system is CDC69 (resistant strain). Kind of test: Direct-from-specimen AST, GC ratio trend over increasing meropenem concentrations. To be noted: CDC 69; 4-hour antibiotic exposure; meropenem 1 to 64 μg/mL; agrees with CDC AR Bank MIC. The format is cell-based. An excerpt: (§1) The direct-from-specimen AST disclosed herein will start with various types of specimens with an unknown concentration of pathogens, from 0 to >10^8 CFU/mL. In order to determine the minimum assay time needed for quantification of RNA transcription at different levels of pathogen concentration, a correlation between the limit of detection (LOD) of the current molecular analysis platform (see FIG. 3 steps 1-17) with the assay turnaround time (TAT) was established (see FIG. 4). […] Target pathogen enrichment and matrix component removal can be carried out by the built-in centrifugal module to achieve lower target LODs with TAT of 42 minutes to 110 minutes. For low-abundance pathogens and early infection diagnostics, additional viability culture steps with TAT of 240 minutes to 330 minutes can be included to achieve an LOD of <10 CFU/mL. The direct-from-specimen AST method disclosed herein will encompass these assay parameters. […] Semi-automatic AST tests directly from whole blood and urine contrived samples were evaluated in FIG. 5 A-C. […]
(§2) Direct-from-specimen AST Analytical Validation Protocol: (1) The user loads the specimen collection tube into the system, which then (2) scans the bar code to determine specimen type. […] The system incubates enzyme, then performs electrochemical reading and (10) AST reporting.

Test [3] has as its system CDC77 (susceptible strain). The description is as above. Type of test: cell-based. To be noted: 4-hour antibiotic exposure, meropenem 1 to 64 μg/mL, agrees with CDC AR Bank MIC.
From the text: as §1, §2

Test [4] deals with Klebsiella pneumoniae (KP) 138. Nature of the test: Preliminary accelerated colistin AST, 2 hours drug-bug exposure. The format is cell-based. To be noted: 2 hours CST exposure in stripwell, FIG. 8A. An excerpt:
(§3) Direct-from-specimen of HR approach. HR is a poorly characterized phenomenon and the lack of consensus-based standards further complicates the study of antibiotic resistance. In addition, its clinical relevance is uncertain due to a lack of a standardized procedure to be implemented into the current workflow in clinical microbiology laboratories. […] FIG. 8C is the HR testing on the system.

The test system of test [5] is CDC Enterobacter cloacae (EbC) 545. The description is as above. Type of test: cell-based. As to conditions: 2 hours CST exposure in stripwell, FIG. 8A.
From the text: as §3

For test [6], the system named is CDC Proteus mirabilis (PM) 29. Described as above. Type of test: cell-based. To be noted: CDC PM 29; 2 hours exposure.
From the text: as §3

Test [7] has as its system CDC Proteus mirabilis (PM) 29. As to conditions: CDC PM 29; cited from earlier work.
Test [8] deals with KP 525. To be noted: cited from earlier work.
The subject of test [9] is CDC KP 522. As to conditions: cited from earlier work.
Test [10] has as its system CDC 349 E. coli. To be noted: cited from earlier work.
Test [11] deals with CDC Enterobacter cloacae (EbC) 545. As to conditions: CDC EbC 545; cited from earlier work.
Test [12] concerns KP 525. Nature of the test: Preliminary accelerated colistin AST, 2 hours drug-bug exposure. Type of test: cell-based, Klebsiella pneumoniae. To be noted: colistin 0.25-8 μg/mL, 2 hours exposure.
From the text: as §3

Test [13] concerns CDC KP 522. Described as above. Type of test: cell-based, Klebsiella pneumoniae. To be noted: colistin 0.25-8 μg/mL, 2 hours exposure.
From the text: as §3

Test [14] relates to Klebsiella pneumoniae (KP) 138. To be noted: cited from earlier work.

Turning to `C[C@@H](O)[C@H]1C(=O)N2C(C(=O)O)=C(S[C@@H]3CN[C@H](C(=O)N(C)C)C3)[C@H](C)[C@H]12` [meropenem], in test [1] (Pseudomonas aeruginosa, ATCC27853, read-out: MIC), the MIC came to 0.5 µg/mL. The “MIC reported from trend of GC ratio” value in test [2] was 8 µg/mL; in test [3], less than 1 µg/mL.

In the case of colistin, the “growth response to colistin exposure” value in [4] is listed as “clear inhibited growth”; in test [5], “clear inhibited growth”; in test [12], “not affected”; in test [13], “not affected”. In test [6], the “susceptibility to colistin relative to other strains tested” value was “least susceptible”. In test [7], the “MIC (listed)” value was greater than 4 µg/mL. Besides, the MIC in test [8] was greater than 8 µg/mL; in test [9] it was greater than 8 µg/mL; in test [10] it was 2 to 4 µg/mL; in test [11], no more than 0.25 µg/mL; in test [14], 2 µg/mL.

gentamicin: the MIC in test [1] worked out at 1 µg/mL.
